Several values for one entry are separate records, joined by “and”; a condition that tells them apart may be missing. Equal entries are not always repeated. Where two headings read alike, the source gives them in different places.
Assays:
[1] = test system: testicular co-culture: spermatogonial cells (C18-4), Sertoli cells (TM4), Leydig cells (TM3); conditions: for concentration with statistically significant decrease in viability (p<0.05): 48 h exposure
reproductive system [2] = conditions: cited from earlier work
Sertoli cells (TM4) = experiment: cells; assay type: cell-based, mouse
[3] = test system: Spermatogonial cells (C18-4); experiment: cells; assay type: cell-based, mouse
Leydig cells (TM3) = experiment: cells; assay type: cell-based, mouse
[4] = test system: testicular co-culture: spermatogonial cells (C18-4), Sertoli cells (TM4), Leydig cells (TM3); experiment: cells; conditions: Mus musculus
reproductive system [5] = conditions: cited from earlier work; remark: listed apart in the source
[6] = test system: testicular co-culture (spermatogonial, Sertoli, Leydig cells); experiment: Multi-parametric high-content assay of the co-culture treated with cadmium; assay type: cell-based, mouse; conditions: 0.05, 0.25, 0.50 and 1.0 μM for 48 h
Description: All cultures were viewed with an Olympus inverted microscope equipped with phase-contrast optics (Olympus, Tokyo, Japan) at intervals during the culture to assess their general appearance. Images were captured and digitized with a Nikon Camera. To further examine the morphology of the cultured cells, a multi-parametric high-content analysis (HCA) was applied to quantify the F-actin cytoskeleton, nuclear shape, and cell proliferation. The spermatogonial cells were identified using typical markers of mouse germ cell nuclear antigen (GCNA1) (Developmental Studies Hybridoma Bank, http://dshb.biology.uiowa.edu, Iowa, IA)(Enders and May, 1994). Leydig cells were identified using steroidogenic acute regulatory protein (StAR)(Clark et al., 1994) (kindly gifted by Dr. Douglas M. Stocco, Texas Tech University). Sertoli cells were stained with SOX9 (Developmental Studies Hybridoma Bank, Iowa, IA). After culture for 48 and 72 h, cells were washed with phosphate buffered saline (PBS), fixed with 4% formaldehyde for 20 min at room temperature, and then washed with PBS three times. […] The multichannel images were automatically captured using an Arrayscan VTI HCS reader with a Studio 2.0 Target Activation BioApplication module (Thermo Scientific, MA). […]
Single-cell based High-content Analysis (HCA) provided multi-parameter phenotypic profiling characterization, including number, nuclear area, shape, and intensity, as previously reported (Liang et al., 2017). […] With 36 fields of each well, at least 4000 cells were analyzed per well, and single-cell based data for each channel were exported for further statistical analysis. […]
For quantitative analysis of three-dimensional F-actin cytoskeleton, we applied the Cytoskeletal Re-arrangement Assay in the Morphology Explorer Bioapplication (ThermoScientific, MA) to determine the number, dimensions and alignment—as well as the texture—of actin fibers based on the manufacturer's guideline (ThermoFisher, 2010). […]

[7] = co-culture, 48 h treatment, FIG. 6
[8] = based on ToxCast database and literature search
[9] = Mus musculus, 24 h, read-out: IC50
[10] = Mus musculus, 48 h, read-out: IC50
[11] = Mus musculus, Leydig, 24 h, read-out: IC50
[12] = Mus musculus, Leydig, 48 h, read-out: IC50
[13] = Co-culture, 24 h, highest concentration tested assigned as IC50 where viability did not decrease 50%
[14] = Co-culture, 48 h, highest concentration tested assigned as IC50 where viability did not decrease 50%
[15] = Sertoli Cell, 24 h, highest concentration tested assigned as IC50 where viability did not decrease 50%, read-out: IC50
[16] = Sertoli Cell, 48 h, highest concentration tested assigned as IC50 where viability did not decrease 50%, read-out: IC50
[17] = Spermatogonial Cell, 24 h, highest concentration tested assigned as IC50 where viability did not decrease 50%, read-out: IC50
[18] = Spermatogonial Cell, 48 h, highest concentration tested assigned as IC50 where viability did not decrease 50%, read-out: IC50
[19] = Leydig Cell, 24 h, highest concentration tested assigned as IC50 where viability did not decrease 50%, read-out: IC50
[20] = Leydig Cell, 48 h, highest concentration tested assigned as IC50 where viability did not decrease 50%, read-out: IC50

| Molecule | IC50 ([4]; 24 h) [µM] | IC50 ([4]; 48 h) [µM] | effect on cell viability (NR uptake), in words [1, 7] | In vivo Reproductive Toxicity (reproductive system [2]; [8]) | IC50 (Sertoli cells (TM4); [9]) [µM] | IC50 (Sertoli cells (TM4); [10]) [µM] | IC50 [3, 9] [µM] | IC50 [3, 10] [µM] | IC50 (Leydig cells (TM3); [11]) [µM] | IC50 (Leydig cells (TM3); [12]) [µM] | further results |
| --- | --- | --- | --- | --- | --- | --- | --- | --- | --- | --- | --- |
| OB(O)O [BA, Boric acid] | > 5000 | > 5000 |  |  |  |  |  |  |  |  | effect on cell viability (NR uptake), in words [1]: statistically significant decreases in cell viability; in vitro call as reproductive toxicant [1]: negative; In vivo Reproductive Toxicity (reproductive system [2]; in vivo): +; call in in vivo models (reproductive system [2]; in vivo): positive; IC50 (Sertoli cells (TM4); Mus musculus, 24 h): > 5000 µM; IC50 (Sertoli cells (TM4); Mus musculus, 48 h): > 5000 µM; IC50 ([3]; Mus musculus, 24 h): > 5000 µM; IC50 ([3]; Mus musculus, 48 h): 3580 µM; IC50 (Leydig cells (TM3); Mus musculus, Leydig, 24 h): > 5000 µM; IC50 (Leydig cells (TM3); Mus musculus, Leydig, 48 h): > 5000 µM |
| CCCCOC(=O)c1ccccc1C(=O)OCc1ccccc1 [BBP, Benzyl butyl phthalate] | 885 | 539 | dose-dependent decrease of cell viability | + | ≥ 400 | ≥ 400 | ≥ 400 | ≥ 400 | ≥ 400 | ≥ 400 | concentration with statistically significant decrease in viability (p<0.05) ([1]; co-culture, FIG. 6): 200 µM |
| O=C(c1ccc2c(c1)C(=O)OC2=O)c1ccc2c(c1)C(=O)OC2=O [BEN, Benzophenone-3,3′,4,4′-tetracarboxylic dianhydride] |  |  | significant dose-dependent decrease of cell viability | + |  |  |  |  |  |  |  |
| CCOP(=S)(OCC)Oc1nc(Cl)c(Cl)cc1Cl [CHL, chlorpyrifos] | 91.5 | 89 | significant dose-dependent decrease of cell viability | + | 212 | 120 | 118 | 96 | 142 | 120 | IC50 ([4]; read-out: IC50 values (mostly)): ≤ 100 µM |
| O=P1(N(CCCl)CCCl)NCCCO1 (stereo not drawn) [CYC, Cyclophosphamide] | > 5000 | > 5000 |  |  |  |  |  |  |  |  | effect on cell viability (NR uptake), in words [1]: did not cause a significant decrease in cell viability; in vitro call as reproductive toxicant [1]: negative; In vivo Reproductive Toxicity (reproductive system [2]; in vivo): +; call in in vivo models (reproductive system [2]; in vivo): positive; IC50 (Sertoli cells (TM4); Mus musculus, 24 h): > 5000 µM; IC50 (Sertoli cells (TM4); Mus musculus, 48 h): > 5000 µM; IC50 ([3]; Mus musculus, 24 h): > 5000 µM; IC50 ([3]; Mus musculus, 48 h): > 5000 µM; IC50 (Leydig cells (TM3); Mus musculus, Leydig, 24 h): > 5000 µM; IC50 (Leydig cells (TM3); Mus musculus, Leydig, 48 h): > 5000 µM |
| [Cl][Cd][Cl] [Cd, Cadmium chloride] |  |  | most toxic | + |  |  |  |  |  |  | reproductive LOAEL (reproductive system [5]; in rats): 0.088 mg/kg/day; IC50 [1, 13]: 11.3 µM; IC50 [1, 14]: 4.2 µM; F-actin cytoskeletal structure [6]: destruction of cytoskeletal structure; cell proliferation (cell number) [6]: decrease of cell proliferation (cell number); γH2AX foci formation ([6]; dose-dependent): significantly induced phosphorylation of γH2AX foci formation; IC50 (Sertoli cells (TM4); [15]): 14.6 µM; IC50 (Sertoli cells (TM4); [16]): 9.5 µM; IC50 [3, 17]: 2.1 µM; IC50 [3, 18]: 2.1 µM; IC50 (Leydig cells (TM3); [19]): 16 µM; IC50 (Leydig cells (TM3); [20]): 8.5 µM |
| CCCCOC(=O)c1ccccc1C(=O)OCCCC [DBP, Dibutyl phthalate] | 437 | 388 | dose-dependent decrease of cell viability | + | ≥ 400 | ≥ 400 | ≥ 400 | 371 | ≥ 400 | ≥ 400 | concentration with statistically significant decrease in viability (p<0.05) ([1]; co-culture, FIG. 6): 200 µM |
| CCOC(=O)c1ccccc1C(=O)OCC [DEP, Diethylphthalate] | > 400 | > 400 | no or slight decrease of cell viability | − | > 400 | > 400 | > 400 | > 400 | > 400 | > 400 | developmental toxicity of phthalates (literature) (reproductive system [2]; in vivo): developmental non-toxic |
| CC/C(=C(/CC)c1ccc(O)cc1)c1ccc(O)cc1 [DES, Diethylstilbestrol] |  |  |  | + |  |  |  |  |  |  | reproductive LOAEL (reproductive system [5]; in rats): 10 mg/kg/day |
| COC(=O)c1ccccc1C(=O)OC [DMP] |  |  | no or slight decrease of cell viability |  |  |  |  |  |  |  | developmental toxicity of phthalates (literature) (reproductive system [2]; in vivo): developmental non-toxic |
| CCCCCOC(=O)c1ccccc1C(=O)OCCCCC [DPP] |  |  | dose-dependent decrease of cell viability |  |  |  |  |  |  |  | IC50 [1, 13]: 550 µM; IC50 [1, 14]: 352 µM; IC50 [3, 18]: 372 µM; IC50 (Leydig cells (TM3); [20]): 244 µM |
| NC(=O)NO [HU] |  |  | statistically significant decreases in cell viability |  |  |  |  |  |  |  | IC50 [1, 14]: 200 µM; IC50 (Sertoli cells (TM4); [15]): 396 µM; IC50 (Sertoli cells (TM4); [16]): 150 µM; IC50 [3, 18]: 300 µM; IC50 (Leydig cells (TM3); [19]): 600 µM; IC50 (Leydig cells (TM3); [20]): 200 µM |
| O=C1NS(=O)(=O)c2ccccc21 [SAC] |  |  | did not cause a significant decrease in cell viability |  |  |  |  |  |  |  |  |
| Oc1cc(Cl)ccc1Oc1ccc(Cl)cc1Cl [TCS] |  |  | significant dose-dependent decrease of cell viability |  |  |  |  |  |  |  | IC50 [1, 13]: 121 µM; IC50 [1, 14]: 76.5 µM; IC50 (Sertoli cells (TM4); [15]): 81 µM; IC50 (Sertoli cells (TM4); [16]): 72.7 µM; IC50 [3, 17]: 62.7 µM; IC50 [3, 18]: 57.3 µM; IC50 (Leydig cells (TM3); [19]): 135 µM; IC50 (Leydig cells (TM3); [20]): 80 µM |
| CCCC(CCC)C(=O)[O-].[Na+] [VPA, Valproic acid sodium salt] | > 20000 | 8850 | statistically significant decreases in cell viability | + | > 20000 | 7610 | > 20000 | 6000 | > 20000 | 9480 |  |
| C[C@H]1CCCC(=O)CCC/C=C/c2cc(O)cc(O)c2C(=O)O1 [ZEA, Zearalenone] | 7.2 | 4.1 |  | + | 3.1 | 2.5 | 3.8 | 2 | 3.4 | 2.5 | reproductive LOAEL (reproductive system [5]; in rats): 1 mg/kg/day; IC50 ([4]; read-out: IC50 values (mostly)): ≤ 100 µM |
| Sodium arsenite [As] |  |  |  |  |  |  |  |  |  |  | reproductive LOAEL (reproductive system [5]; rat, in vivo): 8 mg/kg/day; IC50 [1]: 15 µM and 10 µM; effect on cell viability (NR uptake), in words [1]: most toxic; In vivo Reproductive Toxicity (reproductive system [2]; in vivo): +; IC50 (Sertoli cells (TM4); read-out: IC50): 12 µM and 6.9 µM; IC50 ([3]; read-out: IC50): 6.9 µM and 6.8 µM; IC50 (Leydig cells (TM3); read-out: IC50): 20.3 µM and 16.1 µM |
| TCEP |  |  | statistically significant decreases in cell viability |  |  |  |  |  |  |  | IC50 [3, 17]: 5110 µM; IC50 [3, 18]: 3680 µM |

From patent US20180371408A1, “CELL CULTURES AND METHODS OF USE” (priority 2017, published 2018)
